Assays:
[1] = test system: HT-1080 xenografts; assay: HT-1080 tumor treatment study; format: in vivo, mouse; conditions: nude Balb/c mice; 100 or 50 mg/Kg, QD×5 days, IP
Procedure: Nude Balb/c (Nu/Nu strain, Charles River Laboratories), female, 5-6 week. old (˜20 g average body weight).
Both compounds were formulated in an identical manner. For the 100 mg/kg dose level, each compound was delivered at a concentration of 10.0 mg/ml, in an injection volume of 0.2 ml. For the 50 mg/kg dose level, each compound was delivered at a concentration of 5.0 mg/ml, in an injection volume of 0.2 ml. For both dose levels, the vehicle contained 0.025% Tween-80, 0.01% benzyl alcohol, 35 mM acetic acid (HOAc), 100 mM potassium phosphate buffer, and 32 mM sucrose, pH=6.5.
Beginning when the mean tumor volume reached ˜200 mm^3, and continuing through day 5, every day, each animal was administered a single IP injection of one of the above treatments, for a total of 5 doses.
Each of 70 mice was implanted with 1×10^7 HT-1080 cells by SC injection of 0.1 cc of inoculum into the right hind flank. A 25 G×⅝″ needle size was used. […]
Starting on Day 1, all animals were weighed, and tumor dimensions (length (L) and width (W)) were measured, every other day. […]
The resulting tumor volume values were averaged for each study group for each time point, and were then plotted against time. Variance was expressed as standard error of the mean (±SEM).

[2] = test system: BJELR; assay: Sytox primary screen; format: cell-based; conditions: Homo sapiens, Sytox screen, 48 hours, read-out: IC50 in BJELR
Description: The Sytox primary screen is a phenotypic assay which monitors alterations in cell survival-proliferation as a result of compound treatment. It was devised as high throughput method to identify compounds which specifically alter the growth potential of cells harboring the causative mutations found in cancer patients while not affecting the growth of normal cells.
The assay relies upon an inexpensive, simple and reliable readout of a membrane impermeable fluorescent dye (Sytox, from Molecular Probes) which binds to nucleic acid. In healthy cells, no signal is detected because the cell's membrane is intact and the dye will not enter. However, if a cell's membrane is compromised as a result of apoptosis or necrosis, a fluorescent signal proportional to the number of similarly affected cells will be detected. By utilizing a two-step readout (final read in the presence of detergent to permit labeling of all cells), the assay can identify compounds which produce cytostasis, cytotoxicity and/or mitogenesis. The first read or “dead cell” read provides an estimate of the toxicity of a given compound by indicating the number of dead or dying cells in the culture at the time of assay. The second read or “total cell” read captures both the cumulative effects of cytoxicity in reducing the size of the cell population as well as any cytostatic or anti-proliferative effects a test compound may exert on the cells in the test population in the absence of toxicity.
For the purpose of screening, the previously described BJ-TERT line was defined as the “normal” reference cell line and BJ-TERT/LT/ST/RAS^V12 cells were the tumorigenic cell line. Cells were seeded overnight in 96 well plates at densities which without treatment would permit 95% confluence in the wells 72 H later. The following day, the cells were exposed to test compounds in a dilution series for a period of 48 hours. Following this incubation period, the Sytox reagent was added to the cultures at the manufacturer's recommended concentration and the dead cell fluorescence read was taken. After completion of this measurement, the detergent Saponin was added to each well of the cultures to permeabilize the membranes allowing the Sytox reagent to enter every cell thereby, facilitating measurement of the total number of cells remaining in the culture.

[3] = test system: PANC-1 xenografts; assay: PANC-1 tumor treatment study; format: in vivo; conditions: immunodeficient nude mouse; once a day for five consecutive days
Procedure: The experimental plan for the PANC-1 study was essentially identical to that of the HT-1080 study outlined above in Example 10 with the following exceptions: approximately 30-40 mg fragment of passaged PANC-1 tumor tissue was implanted subcutaneously in the right flank of an immunodeficient nude mouse. Tumor growth was monitored daily and when the tumors reached approximately 100 mm^3, animals harboring similarly sized tumors were group matched and compound dosing was initiated. Administration of compound 5 occurred once a day for five consecutive days at the doses listed below. In the PANC-1 xenografts, gemcitabine, administered at the maximum tolerated dose for the model, was used as a control. The gemcitabine regimen was 180 mg/kg […] on every third day over a period of 9 days.

[4] = test system: BJ-TERT/LT/ST/RAS^V12 cells; assay: Annexin V-FITC apoptosis assay; format: cell-based, human; conditions: erastin-treated (9 μM); untreated 6%
Procedure: BJ-TERT/LT/ST/RAS^V12 cells were seeded at 1×10^6 cells per dish in 100 mm dishes and allowed to grow overnight. Cells were treated with erastin (5 or 10 μg/ml) for 6, 8 or 11 h. A camptothecin-treated (0.4 μg/ml) control was maintained, treated at the time of seeding for 20 hours. After the treatment, cells were harvested with trypsin/EDTA and washed once with fresh medium containing serum and then twice with phosphate buffered saline. Cells were resuspended in 1× binding buffer (BD Pharmingen) at a concentration of 1×10^6 cells/ml. 100 μl (1×10^5 cells) was incubated with 5 μl of Annexin V-FITC (BD Pharmingen) and propidium iodiode (BD Pharmingen) for 15 minutes in the dark at room temperature. Then 400 μl of the 1× binding buffer was added and the cells analyzed by flow cytometry (Becton-Dickinson). Data were acquired and analyzed using Cellquest software.

[5] = test system: BJ-TERT/LT/ST/RAS^V12 cells; assay: Calcein AM viability assay, dilution series; format: cell-based, human; conditions: within 18 hours; BJ-TERT/LT/ST/RAS^V12 cells
Procedure: Described here is work carried out to identify compounds with increased potency or activity in the presence of hTERT, LT, ST, E6, E7 or RAS^V12. Although the work described herein made use of hTERT, LT, ST, E6, E7 and RAS^V12 as transforming genes, future studies can make use of a wide variety of cancer-associated alleles using this methodology in order to define the signaling networks that involve many oncogenes and tumor suppressors. […] Cell viability was measured using the dye calcein acetoxymethyl ester (calcein AM) (Wang et al., 1993, Hum. Immunol. 37, 264-270), which is a non-fluorescent compound that freely diffuses into cells. […]
Calcein acetoxylmethyl ester (AM) is a cell membrane-permeable, non-fluorescent compound that is cleaved by intracellular esterases to form the anionic, cell-impermeable, fluorescent compound calcein. […] Total fluorescence intensity in each well was recorded on a Packard Fusion platereader, and converted to a percent inhibition of signal by subtracting the instrument background and dividing by the average signal obtained when cells were not treated with any compound. […]
Mean RFU (relative fluorescence units) for untreated cells was calculated by averaging columns 1, 2, and 23 (wells with cells but lacking compounds). The calcein background was calculated by averaging column 24 (wells with calcein, but lacking cells). […]

[6] = test system: BJ-TERT/LT/ST/RAS^V12 cells relative to BJ-TERT cells; assay: Alamar Blue viability assay, tumorigenic versus wild type cells; format: cell-based, human
Procedure: Alamar Blue is reduced by mitochondrial enzyme activity in viable cells, causing both colorimetric and fluorescent changes (Nociari et al., 1998, J. Immunol. Methods 13, 157-167). Cells were seeded at a density of 6000 cells (50 μl) per well in a 384-well black, clear bottom plate using a syringe bulk dispenser (Zymark). 10 μl was removed from a two-fold serially diluted erastin plate (6× final concentration) using a 384 fixed cannula head, making the final concentration 20 μg/ml in the well with highest concentration. The plates were incubated for 24 hours. Alamar Blue (Biosource International) was added to each well by diluting 1:10 and incubated for 16 hours at 37° C. Fluorescence intensity was determined using a Packard Fusion platereader with an excitation filter centered on 535 nm and an emission filter centered on 590 nm. Average percentage inhibition at each concentration was calculated. Error bars indicate one standard deviation.
The effect of erastin or erastin B on cell viability was measured using Alamar Blue as described in Example 3 in both tumorigenic BJ-TERT/LT/ST/RAS^V12 (BJELR) cells and wild type BJ-TERT (BJEH) cells. In this example, cell viability was measured at 1, 2, and 3 days after treatment with erastin or erastin B (data for days 1 and 3 not shown). Average percentage inhibition at each concentration was measured.
The effect on cell viability of each of the two isomers of Compound 20 was measured using the Alamar Blue assay described in Example 3 in both tumorigenic BJ-TERT/LT/ST/RAS^V12 cells and wild type BJ-TERT cells. Average percentage inhibition at each concentration was measured.
The effect on cell viability of erastin or Compound 21 was measured using the Alamar Blue assay as described in Example 3 in both tumorigenic BJ-TERT/LT/ST/RAS^V12 cells and in wild type BJ-TERT cells. Average percentage inhibition at each concentration was measured. […]

SMILES | IC50 [2] [µM] | further results
CCOc1ccccc1-n1c(C(C)N2CCNCC2)nc2ccccc2c1=O (centres unmarked) [Compound 6] | ≥ 1 | antitumor activity in HT-1080 xenografts [1]: tumor growth inhibition; antitumor activity in PANC-1 xenografts [3]: tumor growth inhibition
CCOc1ccccc1-n1c(CN2CCCNCC2)nc2ccccc2c1=O [Compound 13] | < 0.1 | 
CCOc1ccccc1-n1c(CN2CCN(CC#N)CC2)nc2ccccc2c1=O [Compound 7] | ≥ 0.1 | 
CCOc1ccccc1-n1c(C(C)N2CCN(C)CC2)nc2ccccc2c1=O (centres unmarked) [Compound 8] | ≥ 1 | 
CCN1CCN(Cc2nc3ccccc3c(=O)n2-c2c(Cl)cccc2Cl)CC1 [Compound 17] | ≥ 0.1 | 
CCOc1ccccc1-n1c(CN2CCCN(C)CC2)nc2ccccc2c1=O [Compound 12] | < 0.1 | 
CCOc1ccccc1-n1c(CN2CCN(CC)CC2)nc2ccccc2c1=O [Compound 11] | ≥ 0.1 | 
CCOc1ccccc1-n1c(C(C)N2CCN(CCO)CC2)nc2ccccc2c1=O (centres unmarked) [Compound 9] | ≥ 1 | 
CCOc1ccccc1-n1c(C(C)N2CCN(C(=O)COc3ccc(Cl)cc3)CC2)nc2ccccc2c1=O (centres unmarked) [Erastin, 2-[1′-(N-(4″-chlorophenoxyacetyl)-N-piperazino]-ethyl]-3-(2′″-ethoxyphenyl)-quinazolin-4-one] |  | percentage of cells in M1 region (Annexin V staining) [4]: 6%; effectiveness (cell death) [5]: 100%
CCOc1ccccc1-n1c(CN2CCN(C(=O)COc3ccc(Cl)cc3)CC2)nc2ccccc2c1=O [Compound 21, 2-({4-[(4-chlorophenoxy)acetyl]piperazin-1-yl}methyl)-3-(2-ethoxyphenyl)quinazolin-4(3H)-one] |  | lethality in BJ-TERT/LT/ST/RAS^V12 (BJELR) cells compared to BJ-TERT (BJEH) cells [6]: selective lethality; profile compared to erastin ([6]; both cell types): profile nearly identical to that of erastin
CCOc1ccccc1-n1c(C(C)N2CCNCC2)nc2cc(Cl)ccc2c1=O (centres unmarked) [Compound 14] | ≥ 0.1 | 
O=c1c2ccccc2nc(CN2CCNCC2)n1-c1c(Cl)cccc1Cl [Compound 16] | ≥ 0.1 | 
CCOc1ccccc1-n1c(CN2CCN(C)CC2)nc2ccccc2c1=O [Compound 10] | ≥ 1 | 

From patent US20070161644A1, “Erastin analogs and uses thereof” (priority 2005, published 2007)
